Source: patent US9023857B2, “Substituted 6-(2-aminobenzylamino)purine derivatives, their use as medicaments and preparations containing these compounds” (Univerzita Palackeho V Olomouci, priority 2009, dated 2015)

How the values were obtained:
VV = type: cell-based, Vaccinia virus strain WR; conditions: Vaccinia virus on HFFF
HSV-1-deltaTK = test: Plaque number reduction assay, HSV-1-deltaTK on HFFF; type: cell-based; conditions: HSV-1 thymidine kinase (TK) deletion mutant on HFFF
CDK9 = CDK9 (Homo sapiens, UniProt P50750); conditions: Olomoucine II compared with Roscovitine; cited from earlier work
[1] = system: tumor suppressor protein p53; conditions: Olomoucine II compared with Roscovitine; cited from earlier work
HSV-2 = test: Plaque number reduction assay, HSV-2 on HFFF; type: cell-based, HSV-2 strain HG52
[2] = system: CMV promoter (plasmid pCMV-lacZ); test: β-galactosidase expression from transiently transfected pCMV-lacZ in MCF-7 and T47D; conditions: transiently transfected MCF-7 and T47D (FIG. 9)
HSV-1 = test: Plaque number reduction assay, HSV-1 on HFFF; type: cell-based, Herpes simplex virus type 1 strain 17
IV = type: cell-based, Influenza Virus H1N1 strain A/PR/8/34; conditions: MDCK cells
[3] = system: HIV promoter (pHIV-lacZ, extrachromosomal) in H1299-TAT cells; test: β-galactosidase expression from pHIV-lacZ transiently transfected to H1299-TAT; conditions: H1299-TAT cells (FIG. 11)
MV = MV syncytium reduction assay in B95a cells; type: cell-based, Measles virus wildtype strain WTFb
[4] = system: SV40 large T-antigen in COS-1 cells; test: Expression from SV40 promoter incorporated in the cellular genome (COS-1 cells); type: cell-based; conditions: COS-1 cells (FIG. 10)
Procedure: Cell were detached with rubber policeman and washed three times with ice-cold PBS and lysed in buffer (50 mM Tris, pH 7.4, 250 mM NaCl, 5 mM EDTA, 50 mM NaF, 1 mM Na3VO4, 1% Nonidet P40) containing mixture of protease and phosphatase inhibitors (Sigma-Aldrich St Louis, Mo., USA). 20 μg of total proteins were separated by SDS-polyacrylamide gel electrophoresis (SDS-PAGE) on 8% or 10% gels and transferred onto nitrocellulose membranes. Membranes were blocked in 5% milk and 0.1% Tween 20 in PBS and probed overnight with specific monoclonal antibodies or rabbit polyclonal sera. Primary antibodies specific for RNA polymerase II (all from Santa Cruz Biotechnology, California, USA) included: (i) N-20 used at […] (ii) H14, specific for form phosphorylated at phosphoserine 5, used at 6 μg/ml and (iii) H5, specific for form phosphorylated at phosphoserine 2 used at 4 μg/ml. Additional primary mAb used in immunblots included (iv) anti-p53 (D0-1, in house, […]) used at 1 μg/ml, (v) anti-p21^WAF1 (118, in house), used at 1 μg/ml), (vi) anti-actin (A-2066, Sigma-Aldrich St Louis, Mo., USA) used at 1 μg/ml, (vii) anti-T-antigen (419, in house, Lane), used at 1 μg/ml. All primary antibodies were diluted in PBS containing 5% powdered milk; 0.1% Tween 20. […]

[5] = system: C-terminal domain (CTD) of RNA polymerase II, serine 2 and serine 5; test: Immunoblotting: phosphorylation of the C-terminal domain of RNA polymerase II; type: cell-based; conditions: 12 hours treatment, cell lines with incorporated SV40, all tested cell lines (FIG. 12A)
Procedure: Cell were detached with rubber policeman and washed three times with ice-cold PBS and lysed in buffer (50 mM Tris, pH 7.4, 250 mM NaCl, 5 mM EDTA, 50 mM NaF, 1 mM Na3VO4, 1% Nonidet P40) containing mixture of protease and phosphatase inhibitors (Sigma-Aldrich St Louis, Mo., USA). 20 μg of total proteins were separated by SDS-polyacrylamide gel electrophoresis (SDS-PAGE) on 8% or 10% gels and transferred onto nitrocellulose membranes. Membranes were blocked in 5% milk and 0.1% Tween 20 in PBS and probed overnight with specific monoclonal antibodies or rabbit polyclonal sera. Primary antibodies specific for RNA polymerase II (all from Santa Cruz Biotechnology, California, USA) included: (i) N-20 used at 1 μg/ml, (ii) H14, specific for form phosphorylated at phosphoserine 5, used at 6 μg/ml and (iii) H5, specific for form phosphorylated at phosphoserine 2 used at 4 μg/ml. Additional primary mAb used in immunblots included (iv) anti-p53 (DO-1, in house) used at 1 μg/ml, (v) anti-p21^WAF1 (118, in house), used at 1 μg/ml), (vi) anti-actin (A-2066, Sigma-Aldrich St Louis, Mo., USA) used at 1 μg/ml, (vii) anti-T-antigen (419, in house), used at 1 μg/ml. All primary antibodies were diluted in PBS containing 5% powdered milk; 0.1% Tween 20. Peroxidase conjugated rabbit anti-mouse immunoglobulin or porcine anti-rabbit immunoglobulin antisera (DAKO, Glostrup, Denmark) were used as the secondary antibodies and visualised with ECL reagents (Amersham-Pharmacia, Little Chalfont, UK).
Modulation of expression from the HIV promoter by CDKI treatment may be mediated by transcriptional regulation. At the C-terminus of the largest subunit of RNA Pol II is an important regulatory domain referred to as CTD (C-terminal domain). We therefore investigated the effect of CDKIs on CTD serine 2 and serine 5 phosphorylation. […] Although the functions of CDKs and RNA polymerase II were suppressed, the expression from incorporated viral promoters was enhanced.
Cell were detached with rubber policeman and washed three times with ice-cold PBS and lysed in buffer (50 mM Tris, pH 7.4, 250 mM NaCl, 5 mM EDTA, 50 mM NaF, 1 mM Na3VO4, 1% Nonidet P40) containing mixture of protease and phosphatase inhibitors (Sigma-Aldrich St Louis, Mo., USA). 20 μg of total proteins were separated by SDS-polyacrylamide gel electrophoresis (SDS-PAGE) on 8% or 10% gels and transferred onto nitrocellulose membranes. Membranes were blocked in 5% milk and 0.1% Tween 20 in PBS and probed overnight with specific monoclonal antibodies or rabbit polyclonal sera. […]

[6] = system: HIV promoter integrated into cellular DNA (H1299-HIV cells); test: β-galactosidase expression from pHIV-lacZ incorporated to cellular genome (H1299-HIV); conditions: HIV promoter integrated into cellular DNA (FIG. 11)
SV40 large T-antigen = type: cell-based; conditions: SV40-infected MCF-7 and T47D; 20 μM Roscovitine or 8 μM 105 (FIG. 8)
HAd4 = test: Plaque number reduction assay, HAd4 on A549; type: cell-based, Human adenovirus type 4 (HAdV-4) strain RI-6
HCMV = test: Plaque number reduction assay, HCMV on HFFF; type: cell-based, Human cytomegalovirus strain Toledo

Sequence of CDK9 (P50750 whole entry, species assumed): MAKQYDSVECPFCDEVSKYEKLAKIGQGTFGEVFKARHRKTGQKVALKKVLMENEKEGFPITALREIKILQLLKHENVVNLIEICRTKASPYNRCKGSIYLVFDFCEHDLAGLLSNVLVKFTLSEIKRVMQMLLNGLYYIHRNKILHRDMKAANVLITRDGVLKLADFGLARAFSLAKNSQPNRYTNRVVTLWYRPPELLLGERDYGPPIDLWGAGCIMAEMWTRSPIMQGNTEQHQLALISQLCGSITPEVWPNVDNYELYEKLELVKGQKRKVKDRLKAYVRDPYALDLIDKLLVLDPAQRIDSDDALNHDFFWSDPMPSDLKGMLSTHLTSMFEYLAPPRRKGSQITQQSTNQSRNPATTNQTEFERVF
Sequence of CDK9 (O60563 whole entry partner, species assumed): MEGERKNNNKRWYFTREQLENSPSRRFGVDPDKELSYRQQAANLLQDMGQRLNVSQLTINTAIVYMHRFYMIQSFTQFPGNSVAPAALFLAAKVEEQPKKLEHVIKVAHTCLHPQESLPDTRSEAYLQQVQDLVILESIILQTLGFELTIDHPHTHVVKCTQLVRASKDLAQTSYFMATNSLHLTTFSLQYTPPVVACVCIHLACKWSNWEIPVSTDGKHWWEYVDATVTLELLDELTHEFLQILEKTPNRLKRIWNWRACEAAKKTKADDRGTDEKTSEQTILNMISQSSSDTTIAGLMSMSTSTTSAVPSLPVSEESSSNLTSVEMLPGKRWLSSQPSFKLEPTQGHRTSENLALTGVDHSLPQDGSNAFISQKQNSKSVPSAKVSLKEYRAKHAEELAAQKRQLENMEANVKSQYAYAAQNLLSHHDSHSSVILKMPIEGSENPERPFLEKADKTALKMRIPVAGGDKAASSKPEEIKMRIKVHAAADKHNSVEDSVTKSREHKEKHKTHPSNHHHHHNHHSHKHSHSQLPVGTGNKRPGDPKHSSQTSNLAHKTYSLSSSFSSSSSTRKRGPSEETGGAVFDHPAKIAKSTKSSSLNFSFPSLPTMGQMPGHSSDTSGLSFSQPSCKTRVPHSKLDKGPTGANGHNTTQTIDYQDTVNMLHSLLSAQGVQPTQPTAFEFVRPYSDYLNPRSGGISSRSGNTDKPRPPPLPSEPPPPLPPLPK

In the case of `O=c1[nH]c(=O)n([C@H]2C[C@H](O)[C@@H](CO)O2)cc1I` [Iododeoxyuridine, 1-(2-Deoxy-β-D-ribofuranosyl)-5-iodouracil], the “inhibition of virus replication (in words)” value (from here on “inhibition”) (VV) is reported as “inhibited equally well”.
In the case of `Nc1nc2c(ncn2COCCO)c(=O)[nH]1` [Acyclovir, 9-[(2-Hydroxyethoxy)methyl]guanine, reference compound], the “inhibition” value (HSV-1-deltaTK) is reported as “resistant”.
For `CC[C@H](CO)Nc1nc(NCc2ccccc2O)c2ncn(C(C)C)c2n1` [Olomoucine II], the “higher inhibitory activity for CDK9” value (CDK9) is listed as 10 fold and the “lower concentrations inducing nuclear accumulation and transcriptional activation of p53” value [1] is listed as 2-3 fold.
With `CC[C@H](CO)Nc1nc(NCc2ccccc2)c2ncn(C(C)C)c2n1` [Roscovitine, 2-(R)-(1-Ethyl-2-hydroxyethylamino)-6-benzylamino-9-isopropylpurine, reference compound] the “inhibition” value (HSV-2) was “did not inhibit”, the “expression from CMV promoter (β-galactosidase activity)” value [2] was “inhibited expression” and the “inhibition” value (HSV-1) was “did not inhibit”. For the same compound, the “inhibition” value (IV) was “ineffective”, the “expression from pHIV-lacZ (extrachromosomal location), β-galactosidase readout” value [3] was “inhibited” and the “inhibition” value (MV) was “ineffective”. For the same compound, the “inhibition” value (VV) was “no overt effect”, the “large T-antigen expression” value [4] was “stimulated large T-antigen expression” and the “phosphorylation of both serine 2 and serine 5 of RNA polymerase II CTD” value [5] was “inhibited”. The “increase of reporter readout” value [6] was 2.5 times, the “level of large T-antigen” value (SV40 large T-antigen) was “reduced level” and the “inhibition” value (HAd4) was “inhibited HAd4 replication”. The “inhibition” value (HCMV) was “equally sensitive”.
